The target in the assay is T1, Mdm2/p53 binding (GST-Mdm2 / His-p53) (Homo sapiens, UniProt Q00987, L33E).
T1 construct: Mdm2 partial protein having Mdm2 amino acids at positions 25 to 108
T1 sequence (Q00987 25-108 L33E): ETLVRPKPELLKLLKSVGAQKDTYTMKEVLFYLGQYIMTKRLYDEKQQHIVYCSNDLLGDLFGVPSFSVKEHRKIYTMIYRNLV
The assay can be described thus: Mdm2/p53 binding assay (HTRF, His-p53 and GST-Mdm2). To be noted: His-p53 (aa 1-132) and GST-Mdm2 (aa 25-108, L33E) 6.25 nM each; 25°C, 1 hour; values given as ranges. The method, then: A protein dilution containing 6.25 nM each of His-p53 (fusion protein of a p53 partial protein having p53 amino acids at positions 1 to 132, with a histidine protein) and GST-Mdm2 (fusion protein of an Mdm2 partial protein having Mdm2 amino acids at positions 25 to 108 with leucine residue 33 substituted by glutamic acid, with glutathione transferase) proteins was prepared using a protein buffer solution (20 mM HEPES pH 7.4, 150 mM NaCl, 0.1% BSA). This protein dilution was added in an amount of 8 μl/well to a 384-well plate (384-well low volume NBC, Corning Inc., catalog No: 3676).
Next, a test compound was diluted with DMSO to produce a protein buffer solution containing 10% dilution, and this buffer solution was added in an amount of 4 μl/well to the plate.
Subsequently, a solution containing an XL665-labeled anti-His antibody (HTRF monoclonal anti-6HIS antibody labeled with XL665 (catalog No: 61HISXLB), Schering/Cisbio Bioassays) and a europium (Eu)-labeled anti-GST antibody (HTRF monoclonal anti-GST antibody labeled with europium cryptate, Schering/Cisbio Bioassays, catalog No: 61GSTKLB) at concentrations of 2.5 μg/ml and 0.325 μg/ml, respectively, was prepared using an antibody diluting buffer solution (20 mM HEPES pH 7.4, 150 mM NaCl, 0.1% BSA, 0.5 M KF). These dilutions were added in an amount of 8 μl/well (total reaction solution volume: 20 μl/well). Then the plate was incubated at 25° ° C. for 1 hour.
Time-resolved fluorescence at 620 and 665 nm was measured at an excitation wavelength of 320 nm using a plate reader (ARVOsx, PerkinElmer Co., Ltd. or PHERAstar, BMG LABTECH). Ratio (R) was calculated using the measured values (RFU 620 nm and RFU 665 nm) according to the following formula: […]
BI: measured value at 665 nm of reaction solution (only each buffer solution) nonsupplemented with each protein, the compound, and the antibodies
A and D: each measured value at 665 nm and 620 nm of reaction solution supplemented with only Eu-labeled anti-GST antibody solution
The R value calculated from the well supplemented with His-p53, GST-Mdm2, the test compound, and each antibody was defined as R (sample). The R value calculated from the well supplemented with His-p53, GST-Mdm2, and each antibody but without the test compound was defined as R (control). The R value calculated from the well supplemented with GST-Mdm2 the test compound, and each antibody but without His-p53 was defined as R (background). T/C was calculated from the formula shown below. An IC50 value for Mdm2/p53 binding was calculated by sigmoid fitting.
For orientation: In TR-FRET formats the signal depends on donor and acceptor labels being close together.
The term IC50 denotes the concentration at which inhibition is half-maximal. `CO[C@H]1C[C@@H](NC(=O)[C@@H]2NC3(CCC(C)(C)CC3)[C@@]3(C(=O)Nc4cc(Cl)ccc43)[C@H]2c2ccnc(Cl)c2)CO[C@@H]1CO` [Example 59, (3′R, 4′R, 5′B)-6″-chloro-4′-(2-chloropyridin-4-yl)-N-[(3R,5S,6R)-6-(hydroxymethyl)-5-methoxytetrahydro-2H-pyran-3-yl]-4,4-dimethyl-2″-oxo-1″,2″-dihydrodispiro[cyclohexane-1,2′-pyrrolidine-3′,3″-indole]-5′-carboxamide]: the half-inhibitory concentration (IC50) lay in the range of 50 to 100 nM. In the case of `COC[C@]1(O)CC[C@@H](NC(=O)[C@@H]2NC3(CCC(C)(C)CC3)[C@@]3(C(=O)Nc4cc(Cl)ccc43)[C@H]2c2ccnc(Cl)c2F)CC1` [Example 61, (3′R, 4′S,5′R)-6″-chloro-4′-(2-chloro-3-fluoropyridin-4-yl)-N-[cis-4-hydroxy-4-(methoxymethyl)cyclohexyl]-4,4-dimethyl-2″-oxo-1″,2″-dihydrodispiro[cyclohexane-1,2′-pyrrolidine-3′,3″-indole]-5′-carboxamide], the concentration for half-maximal inhibition (IC50) is 50 to 100 nM. Compound `CC1(C)CCC2(CC1)N[C@@H](C(=O)N[C@@H]1CC[C@@H](c3ncon3)OC1)[C@H](c1cccc(Cl)c1F)[C@]21C(=O)Nc2nc(Cl)ccc21` [Example 62, (3′R, 4′S,5′R)-6″-chloro-4′-(3-chloro-2-fluorophenyl)-4,4-dimethyl-N-[(3R,6S)-6-(1,2,4-oxadiazol-3-yl)tetrahydro-2H-pyran-3-yl]-2″-oxo-1″,2″-dihydrodispiro[cyclohexane-1,2′-pyrrolidine-3′,3″-pyrrolo[2,3-b]pyridine]-5′-carboxamide] displayed an IC50 of 50 to 100 nM. In turn, `CC1(C)CCC2(CC1)N[C@@H](C(=O)N[C@@H]1CC[C@@H](c3ncon3)OC1)[C@H](c1ccnc(Cl)c1)[C@]21C(=O)Nc2cc(Cl)ccc21` [Example 63, (3′R,4′R,5′R)-6″-chloro-4′-(2-chloropyridin-4-yl)-4,4-dimethyl-N-[(3R,6S)-6-(1,2,4-oxadiazol-3-yl)tetrahydro-2H-pyran-3-yl]-2″-oxo-1″,2″-dihydrodispiro[cyclohexane-1,2′-pyrrolidine-3′,3″-indole]-5′-carboxamide] showed an IC50 of 50 to 100 nM. The figure for `CC1(C)CCC2(CC1)N[C@@H](C(=O)N[C@@H]1CC[C@@H](c3ncon3)OC1)[C@H](c1ccnc(Cl)c1F)[C@]21C(=O)Nc2cc(Cl)ccc21` [Example 64, (3′R, 4′S,5′R)-6″-chloro-4′-(2-chloro-3-fluoropyridin-4-yl)-4,4-dimethyl-N-[(3R,6S)-6-(1,2,4-oxadiazol-3-yl)tetrahydro-2H-pyran-3-yl]-2″-oxo-1″,2″-dihydrodispiro[cyclohexane-1,2′-pyrrolidine-3′,3″-indole]-5′-carboxamide] is 50 to 100 nM; for `CC1(C)CCC2(CC1)N[C@@H](C(=O)N[C@@H]1CC[C@@H](c3n[nH]c(=O)o3)OC1)[C@H](c1ccnc(Cl)c1F)[C@]21C(=O)Nc2nc(Cl)ccc21` [Example 65, (3′R, 4′S,5′R)-6″-chloro-4′-(2-chloro-3-fluoropyridin-4-yl)-4,4-dimethyl-2″-oxo-N-[(3R,6S)-6-(5-oxo-4,5-dihydro-1,3,4-oxadiazol-2-yl)tetrahydro-2H-pyran-3-yl]-1″,2″-dihydrodispiro[cyclohexane-1,2′-pyrrolidine-3′,3″-pyrrolo[2,3-b]pyridine]-5′-carboxamide] it is 1 to 50 nM. With `CC1(C)CCC2(CC1)N[C@@H](C(=O)N[C@@H]1CC[C@@H](c3ncon3)OC1)[C@H](c1ccnc(Cl)c1F)[C@]21C(=O)Nc2nc(Cl)ccc21` [Example 66, (3′R, 4′S,5′R)-6″-chloro-4′-(2-chloro-3-fluoropyridin-4-yl)-4,4-dimethyl-N-[(3R,6S)-6-(1,2,4-oxadiazol-3-yl)tetrahydro-2H-pyran-3-yl]-2″-oxo-1″,2″-dihydrodispiro[cyclohexane-1,2′-pyrrolidine-3′,3″-pyrrolo[2,3-b]pyridine]-5′-carboxamide] the figure was 50 to 100 nM; with `CO[C@@H]1C[C@@H](NC(=O)[C@@H]2NC3(CCC(C)(C)CC3)[C@@]3(C(=O)Nc4nc(Cl)ccc43)[C@H]2c2cccc(Cl)c2F)CO[C@@H]1CO` [Example 68, (3′R, 4′S,5′R)-6″-chloro-4′-(3-chloro-2-fluorophenyl)-N-[(3R,5R,6R)-6-(hydroxymethyl)-5-methoxytetrahydro-2H-pyran-3-yl]-4,4-dimethyl-2″-oxo-1″,2″-dihydrodispiro[cyclohexane-1,2′-pyrrolidine-3′,3″-pyrrolo[2,3-b]pyridine]-5′-carboxamide], 1 to 50 nM; with `CC1(C)CCC2(CC1)N[C@@H](C(=O)N[C@@H]1CC[C@@H](C(N)=O)OC1)[C@H](c1ccnc(Cl)c1F)[C@]21C(=O)Nc2nc(Cl)ccc21` [Example 71, (3′R, 4′S, S′R)—N-[(3R,6S)-6-carbamoyltetrahydro-2H-pyran-3-yl]-6″-chloro-4′-(2-chloro-3-fluoropyridin-4-yl)-4,4-dimethyl-2″-oxo-1″,2″-dihydrodispiro[cyclohexane-1,2′-pyrrolidine-3′,3″-pyrrolo[2,3-b]pyridine]-5′-carboxamide], 1 to 50 nM.

`CC1(C)CCC2(CC1)N[C@@H](C(=O)N[C@H]1CC[C@H](N3CC(O)C3)CC1)[C@H](c1ccnc(Cl)c1F)[C@]21C(=O)Nc2cc(Cl)ccc21` [Example 72, (3′R, 4′S,5′R)-6″-chloro-4′-(2-chloro-3-fluoropyridin-4-yl)-N-[trans-4-(3-hydroxyazetidine-1-yl)cyclohexyl]-4,4-dimethyl-2″-oxo-1″,2″-dihydrodispiro[cyclohexane-1,2′-pyrrolidine-3′,3″-indole]-5′-carboxamide] gave an IC50 of 1 to 50 nM. The compound `CO[C@]1(CO)CC[C@H](NC(=O)[C@@H]2NC3(CCC(C)(C)CC3)[C@@]3(C(=O)Nc4cc(Cl)ccc43)[C@H]2c2cccc(Cl)c2F)CC1` [Example 73, (3′R, 4′S,5′R)-6″-chloro-4′-(3-chloro-2-fluorophenyl)-N-[cis-4-(hydroxymethyl)-4-methoxycyclohexyl]-4,4-dimethyl-2″-oxo-1″,2″-dihydrodispiro[cyclohexane-1,2′-pyrrolidine-3′,3″-indole]-5′-carboxamide] came in with a concentration for half-maximal inhibition (IC50) of 50 to 100 nM.

As to `CO[C@]1(CO)CC[C@@H](NC(=O)[C@@H]2NC3(CCC(C)(C)CC3)[C@@]3(C(=O)Nc4cc(Cl)ccc43)[C@H]2c2cccc(Cl)c2F)CC1` [Example 74, (3′R, 4′S,5′R)-6″-chloro-4′-(3-chloro-2-fluorophenyl)-N-[trans-4-(hydroxymethyl)-4-methoxycyclohexyl]-4,4-dimethyl-2″-oxo-1″,2″-dihydrodispiro[cyclohexane-1,2′-pyrrolidine-3′,3″-indole]-5′-carboxamide], the IC50 is 50 to 100 nM. The figure for `CC1(C)CC2(C1)N[C@@H](C(=O)N[C@@H]1CC[C@@H](CO)OC1)[C@H](c1cccc(Cl)c1F)[C@]21C(=O)Nc2nc(Cl)ccc21` [Example 79, (3′R, 4′S,5′R)-6″-chloro-4′-(3-chloro-2-fluorophenyl)-N-[(3R,6S)-6-(hydroxymethyl)tetrahydro-2H-pyran-3-yl]-3,3-dimethyl-2″-oxo-1″,2″-dihydrodispiro[cyclobutane-1,2′-pyrrolidine-3′,3″-pyrrolo[2,3-b]pyridine]-5′-carboxamide] is 50 to 100 nM; for `COC[C@]1(O)CC[C@@H](NC(=O)[C@@H]2NC3(CCC(C)(C)CC3)[C@@]3(C(=O)Nc4nc(Cl)ccc43)[C@H]2c2ccnc(Cl)c2F)CC1` [Example 80, (3′R, 4′S,5′R)-6″-chloro-4′-(2-chloro-3-fluoropyridin-4-yl)-N-[cis-4-hydroxy-4-(methoxymethyl)cyclohexyl]-4,4-dimethyl-2″-oxo-1″,2″-dihydrodispiro[cyclohexane-1,2′-pyrrolidine-3′,3″-pyrrol[2,3-b]pyridine]-5′-carboxamide] it is 50 to 100 nM. The figure for `CO[C@]1(CO)CC[C@@H](NC(=O)[C@@H]2NC3(CCC(C)(C)CC3)[C@@]3(C(=O)Nc4nc(Cl)ccc43)[C@H]2c2cccc(Cl)c2F)CC1` [Example 81, (3′R, 4′S,5′R)-6″-chloro-4′-(3-chloro-2-fluorophenyl)-N-[trans-4-(hydroxymethyl)-4-methoxycyclohexyl]-4,4-dimethyl-2″-oxo-1″,2″-dihydrodispiro[cyclohexane-1,2′-pyrrolidine-3′,3″-pyrrolo[2,3-b]pyridine]-5′-carboxamide] is 1 to 50 nM.

Values taken from patent US12545685B2 (Daiichi Sankyo Company, Limited, priority 2011, dated 2026).
